Test results as given in patent US4698332A, “Expectorant” (Mect Corporation, priority 1984, dated 1987).
Where a name gives a salt, the structure may show the parent alone. Read-outs that look alike come from different tables or passages of the source.

How the values were obtained:
[1] = Rheological properties and pH of purulent sputum after sodium salt treatment (Example 10); design: species or system human; settings: 1 mg/ml sputum
Method: (§1) The sputum used as the specimens was collected from 12 samples of patients suffering from chronic obstructive lung disease. N-acetylneuraminic acid was added to the specimen sputum in the ratios of 5 mg/ml sputum and 1 mg/ml sputum, and the specimen was left for 1 hour at 4° C. before measurement. Sputum which has not been treated by N-acetylneuraminic acid was used as a comparison example. A palatine mucosa obtained from a decapitated frog head was kept at constant temperature and humidity until the mucus liquid of the frog itself depleted. The specimen sputum was placed on the dried palatine mucosa, and the speed of movement of the sputum was observed through a noumenal microscope, thus measuring the MTR. The pH value of the sputum was measured by means of an electronic model HM-SAp pH meter, while the spinnability was measured by a device developed by Nagaoka and Yamanaka (disclosed in Transactions of 2nd Symposium of Cough and sputum, published July 20, 1979). The yield value was measured by Dulfano's double-tube method which is shown in the American Review of Respiratory Diseases, Vol. 104, p88, 1971.
(§2) Effect of sodium salt of N-acetylneuraminic acid on sputum was examined in accordance with the testing method explained in connection with Example 5.

[2] = test system: purulent sputum from patients with diffuse panbronchiolitis; assay: MTR of purulent sputum after sodium salt treatment (Example 10); design: species or system human sputum; frog palatine mucosa; settings: 1 mg/ml sputum
Method: as §1, §2

palatine mucosa of frog = assay: Mucociliary transport of frog palatine mucosa (Example 8, Table 6); format: cell-based; settings: for activation at 100 µg/mL: 10^-1 mg/ml; for activation at 100 µg/mL / activation at 10 µg/mL / activation at 1 µg/mL / activation at 0.1 µg/mL: mean ± SD, over 20.0% significant, read-out: Acceleration (mucociliary transport); for activation at 10 µg/mL: 10^-2 mg/ml; for activation at 1 µg/mL: 10^-3 mg/ml; for activation at 0.1 µg/mL: 10^-4 mg/ml
Method: Mucociliary transport was measured by the particle transport method. After decapitation of a frog, the surface of the palatine mucosa was separated with minimized damage and of fixed to a cork plate in a Petri dish which was then filled with 20 ml of Ringer's solution (trishydrochloric acid). The palatine mucosa was left in this state for 30 minutes before the commencement of measurement. For measurement, the Ringer's solution was removed and fine pieces of cork (capable of passing pharmaceutical sieve No. 5 but not capable of passing No. 6) were placed on the surface of the palatine mucosa, and the time (in seconds) required for the cork piece to move 1 cm was measured. The duration of movement, i.e., moving speed, was measured also in the state immediately after the removal of the Ringer's solution or pharmaceutical solution.

ciliated cell = assay: Rotating ciliated explant (Example 9, Table 7); format: cell-based; settings: for activation at 100 µg/mL: 10^-1 mg/ml; for activation at 100 µg/mL / activation at 10 µg/mL / activation at 1 µg/mL / activation at 0.1 µg/mL: mean ± SD, > 20.0 significant, read-out: Acceleration (rotating ciliated explant); for activation at 10 µg/mL: 10^-2 mg/ml (terbutaline 1-^-2 [sic]); for activation at 0.1 µg/mL: 10^-4 mg/ml
Method: Human ciliated cells were collected from a normal trachea by means of a branchoscope, the ciliated cells being separated by rubbing the bronchus while observing through the branchoscope, while the collection of frog cilitated cells was conducted by rubbing the palatine mucosta, without being specially careful. […] The groups of cells were transferred to a cover slip and one drop of chicken plasma (prepared by Difco Company) and one drop of 50% chicken embryo extract were added to the cells, thus forming clots. The rotary motion in the clots was recorded by means of a video recorder and the number of rotations per minute was measured. The agents were dissolved in the Medium 199 and were injected through a tube attached to a rose chamber. The state of rotary motion 5 minutes, 10 minutes and 15 minutes after the injection were recorded by means of a video recorder, and the number of revolutions was measured.
A test was conducted to examine the above-mentioned effect by using sodium salt of N-Acetylneuraminic Acid, in accordance with the same testing method as that of Example 2.

[3] = Acute toxicity test of sodium salt of N-acetylneuraminic acid, mouse (Example 11); design: species or system ICR mice; settings: in vivo
Method: (§3) A test was conducted to examine the acute toxicity of sodium salt of N-acetylneuraminic acid, using mice, rats, and guinea pig by means of per as, subcutaneous injection, intravenous injection, intraperitoneal injection, and inhalation.
(§4) 20% (W/V) dissolved in distilled water

[4] = Acute toxicity test of sodium salt of N-acetylneuraminic acid, guinea pig (Example 11); design: species or system Hartley guinea pig; settings: in vivo, intravenous injection, 95% 2,355-4,087
Method: as §3
Hartley guinea pig: 6 weeks old
as §4

rat = assay: Acute toxicity test of sodium salt of N-acetylneuraminic acid, rat (Example 11); format: in vivo, SD rats; settings: inhalation, 1hr exposure to mist
Method: as §3, §4
(§5) Inhalation was conducted by 1hr exposure to mist.

[5] = as above; format: in vivo, SD rats; settings: in vivo
Method: as §3, §4, §5

[6] = ip, intraperitoneal injection, first line (sex not given)
[7] = ip, intraperitoneal injection, second line (sex not given)
[8] = po, per os, first line (sex not given)
[9] = po, per os, second line (sex not given)
[10] = sc, subcutaneous injection, first line (sex not given)
[11] = sc, subcutaneous injection, second line (sex not given)

CC(=O)N[C@H]1[C@H]([C@H](O)[C@H](O)CO)OC(O)(C(=O)O)C[C@@H]1O (stereo partly drawn) [sodium salt of N-acetylneuraminic acid]
Change of spinnability [1]: generally increased
Change of sputum pH [1]: significant increase in pH value
Change of yield value [1]: a reduction was observed with regard to the yield value
Yield value after treatment ([1]; 15 specimens, mean ± S.D., before 0.8 ± 1.5): 0.3 ± 0.6 mmH2 O
pH after treatment ([1]; 15 specimens, mean ± S.D., before 7.48 ± 0.41, P < 0.001): 7.91 ± 0.43
Spinnability after treatment ([1]; 15 specimens, mean ± S.D., before 13 ± 14): 21 ± 28 mm
Change of sputum MTR [2]: significant increase in pH value and MTR
MTR after treatment ([2]; 15 specimens, mean ± S.D., before 9 ± 5, P < 0.01): 12 ± 5 mm/min.
activation at 100 µg/mL (palatine mucosa of frog; 5 min, 5 min after applied): 10.7 ± 19.2%
activation at 10 µg/mL (palatine mucosa of frog; 5 min, 5 min after applied): 20.8 ± 25.5%
activation at 1 µg/mL (palatine mucosa of frog; 5 min, 5 min after applied): 16.2 ± 19.5%
activation at 0.1 µg/mL (palatine mucosa of frog; 5 min, 5 min after applied): 2.6 ± 22.2%
activation at 100 µg/mL (palatine mucosa of frog; 10 min, 10 min after applied): 8.5 ± 23.4%
activation at 10 µg/mL (palatine mucosa of frog; 10 min, 10 min after applied): 18 ± 29.7%
activation at 1 µg/mL (palatine mucosa of frog; 10 min, 10 min after applied): 18.9 ± 22.1%
activation at 0.1 µg/mL (palatine mucosa of frog; 10 min, 10 min after applied): 8.5 ± 21.9%
activation at 100 µg/mL (palatine mucosa of frog; 0.25 h, 15 min after applied): 7.4 ± 24.7%
activation at 10 µg/mL (palatine mucosa of frog; 0.25 h, 15 min after applied): 5.7 ± 24.9%
activation at 1 µg/mL (palatine mucosa of frog; 0.25 h, 15 min after applied): 17.7 ± 34%
activation at 0.1 µg/mL (palatine mucosa of frog; 0.25 h, 15 min after applied): 7.1 ± 27.2%
Effect on MTR of frog palatine mucosa (palatine mucosa of frog; Table 6): acceleration of the MTR of the frog palatine mucosa in a certain dependency on the dose
Effect compared with acetylcholine (palatine mucosa of frog; acetylcholine at 10^-4 mg/ml): subtantially equivalent to that of the acetylcholine
Effect on number of rotations (ciliated cell; 10^-3 mg/ml): A significant number of rotations was observed
activation at 100 µg/mL (ciliated cell; 5 min, 5 min after perfusion): 0%
activation at 10 µg/mL (ciliated cell; 5 min, 5 min after perfusion): 1.5 ± 11.6%
activation at 1 µg/mL (ciliated cell; 5 min, 10^-3 mg/ml, 5 min after perfusion): 11.6 ± 29.8%
activation at 0.1 µg/mL (ciliated cell; 5 min, 5 min after perfusion): -3.4 ± 9.7%
activation at 100 µg/mL (ciliated cell; 10 min, 10 min after perfusion): 4.7 ± 6.6%
activation at 10 µg/mL (ciliated cell; 10 min, 10 min after perfusion): 2.1 ± 18.2%
activation at 1 µg/mL (ciliated cell; 10 min, 10^-3 mg/ml, 10 min after perfusion): 20.7 ± 27.5%
activation at 0.1 µg/mL (ciliated cell; 10 min, 10 min after perfusion): 0.6 ± 10.6%
activation at 100 µg/mL (ciliated cell; 0.25 h, 15 min after perfusion): 15.4 ± 9.3%
activation at 10 µg/mL (ciliated cell; 0.25 h, 15 min after perfusion): 3.7 ± 29.3%
activation at 1 µg/mL (ciliated cell; 0.25 h, 10^-3 mg/ml, 15 min after perfusion): 16.2 ± 32.3%
activation at 0.1 µg/mL (ciliated cell; 0.25 h, 15 min after perfusion): -5 ± 8.2%
LD50 at 336 h [3, 6]: > 5000 mg/kg
LD50 at 336 h [3, 7]: > 5000 mg/kg
LD50 at 336 h ([3]; iv, intravenous injection, first line (sex not given), 95% 5,679-7,084): 6290 mg/kg
LD50 at 336 h ([3]; iv, intravenous injection, second line (sex not given), 95% 7,214-9,073): 7950 mg/kg
LD50 at 336 h [3, 8]: > 5000 mg/kg
LD50 at 336 h [3, 9]: > 5000 mg/kg
LD50 at 336 h [3, 10]: > 5000 mg/kg
LD50 at 336 h [3, 11]: > 5000 mg/kg
LD50 at 336 h [4]: 2860 mg/kg
LD50 (rat; first line (sex not given)): > 4,000 mg/m^3
LD50 (rat; second line (sex not given)): > 4,000 mg/m^3
LD50 at 336 h [5, 6]: > 5000 mg/kg
LD50 at 336 h [5, 7]: > 5000 mg/kg
LD50 at 336 h ([5]; iv, intravenous injection, first line (sex not given), 95% 2,638-3,342): 2970 mg/kg
LD50 at 336 h ([5]; iv, intravenous injection, second line (sex not given)): > 5000 mg/kg
LD50 at 336 h [5, 8]: > 5000 mg/kg
LD50 at 336 h [5, 9]: > 5000 mg/kg
LD50 at 336 h [5, 10]: > 5000 mg/kg
LD50 at 336 h [5, 11]: > 5000 mg/kg
